What follows are molecules tested against T1, human Keap1 kelch domain (amino acids Ala321-Thr609) (Homo sapiens, UniProt Q14145) (assay: Keap1-Nrf2 peptide binding assay (fluorescence polarisation)). Conditions: binding of Keap1 kelch domain (20 nM) to fluorescently labeled Nrf2 peptide (50 nM).
T1 construct: human Keap1 kelch domain (amino acids Ala321-Thr609)
T1 sequence (Q14145 321-609): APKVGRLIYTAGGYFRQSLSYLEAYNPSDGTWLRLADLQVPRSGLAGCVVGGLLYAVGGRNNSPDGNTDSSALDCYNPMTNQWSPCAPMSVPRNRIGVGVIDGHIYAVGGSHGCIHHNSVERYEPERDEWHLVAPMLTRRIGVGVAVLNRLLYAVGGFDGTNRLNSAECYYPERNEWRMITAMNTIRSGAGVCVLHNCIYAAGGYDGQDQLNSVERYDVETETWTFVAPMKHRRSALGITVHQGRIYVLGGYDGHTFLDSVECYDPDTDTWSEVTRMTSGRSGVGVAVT
Experimental: A fluorescence polarisation assay was used to measure binding of the human Keap1 kelch domain (amino acids Ala321-Thr609) to a fluorescently labeled peptide containing a Keap1 binding site of human Nrf2 (Alexa633-AFFAQLQLDEETGEFL; JPT Technologies, Berlin, Germany). Two microliters of test compound in reaction buffer (phosphate-buffered saline, 2 mM DL-dithiothreitol, 0.015 % (v/v) Brij-35) containing 6 % (v/v) DMSO were mixed with two microliters of the Keap1 kelch domain in reaction buffer in a black 384-well small volume microtiter plate and incubated at ambient temperature for 15 minutes. Thereafter, two microliters were added of the fluorescently labeled Nrf2 peptide in reaction buffer, and the mixture was incubated for a further 30 minutes at ambient temperature. Final concentrations of the Keap1 kelch domain and the fluorescently labeled Nrf2 peptide were 20 nM and 50 nM, respectively.
Fluorescence polarization (FP) was measured at excitation and emission wavelengths of 635 nm and 660 nm, respectively. Positive controls for binding (two microliters of reaction buffer containing 6 % (v/v) DMSO instead of test compound in the same buffer) and negative controls (as positive controls, but without Keap1 kelch domain) were included on each microtiter plate. Data were expressed as percent-inhibition values: percentinhibition = 100⋅(1-(|FPcompound-FPnegative controle|)/(|FPpositive controle-FPnegative controle|)) [formula]
IC50 values were determined by testing different compound concentrations and fitting the resulting percent-inhibition values to the following equation using XLFit4: percentinhibition = A + (B-A)/(1 + (((IC50)/([Compound])))^D) [formula]
Parameter A was set to zero, pre-fit values for parameters B and D were set to 100 and 1, respectively.
For `Cc1c(Cl)cccc1S(=O)(=O)Nc1ccc(-c2cccc(C(=O)O)c2)c2ccccc12` [Example 13, 3-[4-[(3-chloro-2-methylphenyl)sulfonylamino]-1-naphthyl]benzoic acid], the IC50 was 1.1 µM.
In the case of `O=C(O)c1cccc(-c2ccc(NS(=O)(=O)c3ccc(Cl)cc3Cl)c3ccccc23)c1` [Example 15, 3-[4-[(2,4-dichlorophenyl)sulfonylamino]-1-naphthyl]benzoic acid], the IC50 is reported as 1 µM.
Work on `O=C(O)c1cccc(-c2ccc(NS(=O)(=O)c3cc(Cl)c(Cl)s3)c3ccccc23)c1` [Example 19, 3-[4-[(4,5-dichloro-2-thienyl)sulfonylamino]-1-naphthyl]benzoic acid] yielded an IC50 of 7 µM.
With `Cc1cccc(Cl)c1S(=O)(=O)Nc1ccc(-c2cccc(C(=O)O)c2)c2ccccc12` [Example 21, 3-[4-[(2-chloro-6-methylphenyl)sulfonylamino]-1-naphthyl]benzoic acid] the IC50 was 1.8 µM.
In the case of `N#Cc1ccc(S(=O)(=O)Nc2ccc(-c3cccc(C(=O)O)c3)c3ccccc23)c(Cl)c1` [Example 33, 3-[4-[(2-chloro-4-cyanophenyl)sulfonylamino]-1-naphthyl]benzoic acid], the IC50 is reported as 5.2 µM.
With `O=C(O)c1cccc(-c2ccc(NS(=O)(=O)c3cccc(Cl)c3Cl)c3ccccc23)c1` [Example 34, 3-[4-[(2,3-dichlorophenyl)sulfonylamino]-1-naphthyl]benzoic acid] the IC50 was 1.5 µM.
With `O=C(O)c1cccc(-c2ccc(NS(=O)(=O)c3ccc(F)cc3Cl)c3ccccc23)c1` [Example 35, 3-[4-[(2-chloro-4-fluorophenyl)sulfonylamino]-1-naphthyl]benzoic acid] the IC50 was 5.6 µM.

Same assay, conditions: binding of Keap1 kelch domain (20 nM) to fluorescently labeled Nrf2 peptide (50 nM); read-out: IC50
In the case of `Cc1cc(C)c(C)c(S(=O)(=O)Nc2ccc(-c3cccc(C(=O)O)c3)c3ccccc23)c1C` [Example 1, 3-[4-[(2,3,5,6-tetramethyl-phenyl)-sulfonylamino]-1-naphthyl]benzoic acid], the IC50 is reported as 0.2 µM.
With `COc1ccc(S(=O)(=O)Nc2ccc(-c3cccc(C(=O)O)c3)c3ccccc23)c(OC)c1` [Example 2, 3-[4-[(2,4-dimethoxyphenyl)sulfonylamino]-1-naphthyl]benzoic acid] the IC50 was 4.5 µM.
Molecule `Cc1ccc(S(=O)(=O)Nc2ccc(-c3cccc(C(=O)O)c3)c3ccccc23)cc1` [Example 3, 3-[4-(p-tolylsulfonylamino)-1-naphthyl]benzoic acid] has an IC50 of 2.1 µM.
`Cc1cc(C)c(C)c(S(=O)(=O)Nc2ccc(-c3cccc(C(=O)O)c3F)c3ccccc23)c1C` [Example 4, 2-fluoro-3-[4-[(2,3,5,6-tetramethylphenyl)sulfonylamino]-1-naphthyl]benzoic acid] showed an IC50 of 0.2 µM.
Work on `Cc1cc(C)c(C)c(S(=O)(=O)Nc2ccc(-c3cc(C(=O)O)ccc3F)c3ccccc23)c1C` [Example 5, 4-fluoro-3-[4-[(2,3,5,6-tetramethylphenyl)sulfonylamino]-1-naphthyl]benzoic acid] yielded an IC50 of 0.09 µM.
For `Cc1cc(C)c(C)c(S(=O)(=O)Nc2ccc(-c3ccc(F)c(C(=O)O)c3)c3ccccc23)c1C` [Example 6, 2-fluoro-5-[4-[(2,3,5,6-tetramethylphenyl)sulfonylamino]-1-naphthyl]benzoic acid], the IC50 was 1.7 µM.
Molecule `Cc1ccc2c(NS(=O)(=O)c3c(C)c(C)cc(C)c3C)ccc(-c3cccc(C(=O)O)c3)c2n1` [Example 7, 3-[2-methyl-5-[(2,3,5,6-tetramethylphenyl)sulfonylamino]-8-quinolyl]benzoic acid] has an IC50 of 1.1 µM.
`Cc1nc(-c2ccc(C(F)(F)F)cc2)sc1S(=O)(=O)Nc1ccc(-c2cccc(C(=O)O)c2F)c2ccccc12` [Example 8, 2-fluoro-3-[4-[[4-methyl-2-[4-(trifluoromethyl)phenyl]thiazol-5-yl]sulfonylamino]-1-naphthyl]benzoic acid] was tested, and the IC50 was 5.2 µM.
`Cc1nc(-c2ccc(C(F)(F)F)cc2)sc1S(=O)(=O)Nc1ccc(-c2cc(C(=O)O)ccc2F)c2ccccc12` [Example 9, 4-fluoro-3-[4-[[4-methyl-2-[4-(trifluoromethyl)phenyl]thiazol-5-yl]sulfonylamino]-1-naphthyl]benzoic acid] gave an IC50 of 5.8 µM.
`Cc1cc(C)c(C)c(S(=O)(=O)Nc2ccc(-c3cccc(C(=O)O)c3O)c3ccccc23)c1C` [Example 10, 2-hydroxy-3-[4-[(2,3,5,6-tetramethylphenyl)sulfonylamino]-1-naphthyl]benzoic acid] was tested, and the IC50 was 2.5 µM.
In the case of `CC(=O)Nc1nc(C)c(S(=O)(=O)Nc2ccc(-c3cccc(C(=O)O)c3)c3ccccc23)s1` [Example 11, 3-[4-[(2-acetamido-4-methyl-thiazol-5-yl)sulfonylamino]-1-naphthyl]benzoic acid], the IC50 is reported as 2.8 µM.
With `Cc1nn(C)c(Cl)c1S(=O)(=O)Nc1ccc(-c2cccc(C(=O)O)c2)c2ccccc12` [Example 12, 3-[4-[(5-chloro-1,3-dimethyl-pyrazol-4-yl)sulfonylamino]-1-naphthyl]benzoic acid] the IC50 was 0.4 µM.
`Cc1cc(S(=O)(=O)Nc2ccc(-c3cccc(C(=O)O)c3)c3ccccc23)c(Cl)cc1Cl` [Example 14, 3-[4-[(2,4-dichloro-5-methylphenyl)sulfonylamino]-1-naphthyl]benzoic acid] gave an IC50 of 3.8 µM.
Molecule `O=C(O)c1cccc(-c2ccc(NS(=O)(=O)c3c(F)cccc3F)c3ccccc23)c1` [Example 16, 3-[4-[(2,6-difluorophenyl)sulfonylamino]-1-naphthyl]benzoic acid] has an IC50 of 6.5 µM.
For `Cc1c(S(=O)(=O)Nc2ccc(-c3cccc(C(=O)O)c3)c3ccccc23)sc2ccc(Cl)cc12` [Example 17, 3-[4-[(5-chloro-3-methyl-benzothiophen-2-yl)sulfonylamino]-1-naphthyl]benzoic acid], the IC50 was 1.6 µM.
In the case of `COc1cc(C)ccc1S(=O)(=O)Nc1ccc(-c2cccc(C(=O)O)c2)c2ccccc12` [Example 18, 3-[4-[(2-methoxy-4-methylphenyl)sulfonylamino]-1-naphthyl]benzoic acid], the IC50 is reported as 5.8 µM.
Molecule `O=C(O)c1cccc(-c2ccc(NS(=O)(=O)c3ccc(-n4cccn4)cc3)c3ccccc23)c1` [Example 20, 3-[4-[(4-pyrazol-1-ylphenyl)sulfonylamino]-1-naphthyl]benzoic acid] has an IC50 of 4 µM.
`Cc1nn(C)c(C)c1S(=O)(=O)Nc1ccc(-c2cccc(C(=O)O)c2)c2ccccc12` [Example 22, 3-[4-[(1,3,5-trimethylpyrazol-4-yl)sulfonylamino]-1-naphthyl]benzoic acid] showed an IC50 of 0.8 µM.
`Cc1c(S(=O)(=O)Nc2ccc(-c3cccc(C(=O)O)c3)c3ccccc23)cnn1-c1ccccc1` [Example 23, 3-[4-[(5-methyl-1-phenyl-pyrazol-4-yl)sulfonylamino]-1-naphthyl]benzoic acid] gave an IC50 of 4.5 µM.
In the case of `Cc1nc(C)c(S(=O)(=O)Nc2ccc(-c3cccc(C(=O)O)c3)c3ccccc23)s1` [Example 24, 3-[4-[(2,4-dimethylthiazol-5-yl)sulfonylamino]-1-naphthyl]benzoic acid], the IC50 is reported as 4.6 µM.
Molecule `Cc1ccc2sc(S(=O)(=O)Nc3ccc(-c4cccc(C(=O)O)c4)c4ccccc34)cc2c1` [Example 25, 3-[4-[(5-methylbenzothiophen-2-yl)sulfonylamino]-1-naphthyl]benzoic acid] has an IC50 of 3 µM.
`O=C(O)c1cccc(-c2ccc(NS(=O)(=O)c3ccc(N4CCCC4=O)cc3)c3ccccc23)c1` [Example 26, 3-[4-[[4-(2-oxopyrrolidin-1-yl)phenyl]sulfonylamino]-1-naphthyl]benzoic acid] was tested, and the IC50 was 2.5 µM.
Molecule `CC(=O)N1c2ccc(S(=O)(=O)Nc3ccc(-c4cccc(C(=O)O)c4)c4ccccc34)cc2CC1C` (stereo not drawn) [Example 27, 3-[4-[(1-acetyl-2-methyl-indolin-5-yl)sulfonylamino]-1-naphthyl]benzoic acid] has an IC50 of 3.6 µM.
With `Cc1ccc(F)c(S(=O)(=O)Nc2ccc(-c3cccc(C(=O)O)c3)c3ccccc23)c1` [Example 28, 3-[4-[(2-fluoro-5-methylphenyl)sulfonylamino]-1-naphthyl]benzoic acid] the IC50 was 5.1 µM.
`O=C(O)c1cccc(-c2ccc(NS(=O)(=O)c3ccc4[nH]c(=O)sc4c3)c3ccccc23)c1` [Example 29, 3-[4-[(2-oxo-3H-1,3-benzothiazol-6-yl)sulfonylamino]-1-naphthyl]benzoic acid] showed an IC50 of 5.1 µM.
`CC(=O)N1CCCc2cc(S(=O)(=O)Nc3ccc(-c4cccc(C(=O)O)c4)c4ccccc34)ccc21` [Example 30, 3-[4-[(1-acetyl-3,4-dihydro-2H-quinolin-6-yl)sulfonylamino]-1-naphthyl]benzoic acid] gave an IC50 of 4.3 µM.
Molecule `CC(=O)Nc1ccc(C)c(S(=O)(=O)Nc2ccc(-c3cccc(C(=O)O)c3)c3ccccc23)c1` [Example 31, 3-[4-[(5-acetamido-2-methylphenyl)sulfonylamino]-1-naphthyl]benzoic acid] has an IC50 of 3.2 µM.
In the case of `COc1ccc(F)c(S(=O)(=O)Nc2ccc(-c3cccc(C(=O)O)c3)c3ccccc23)c1` [Example 32, 3-[4-[(2-fluoro-5-methoxyphenyl)sulfonylamino]-1-naphthyl]benzoic acid], the IC50 is reported as 3.3 µM.
With `O=C(O)c1cccc(-c2ccc(NS(=O)(=O)c3ccc(N4CCOCC4)nc3)c3ccccc23)c1` [Example 36, 3-[4-[(6-morpholino-3-pyridyl)sulfonylamino]-1-naphthyl]benzoic acid] the IC50 was 4.2 µM.

Source: patent EP2998294A1, “Naphthyl sulfonamide phenyl derivatives as KEAP-1 modulators for the treatment of diabetes, obesity, dyslipidemia and related disorders” (SANOFI, priority 2014, dated 2016)
